The source of these data is patent publication US11485726B2, “Compound for inhibiting and degrading tyrosine protein kinase ALK” (SHANGHAI MEIZER PHARMACEUTICALS CO., LTD., priority 2017, dated 2022).

The structures appear in SMILES notation.

The target in experiment [1] is T1, ALK kinase (Homo sapiens, UniProt Q9UM73). The experiment is described as follows: ALK inhibition activity by Caliper assay. It is filed as biochemical. To be noted: compound 100 nM. The procedure: Example 5 Testing the ALK Inhibition Activity of Compound by Caliper Assay
The experimental steps were as follows:
Preparation of 1×kinase reaction buffer (50 mM HEPES, PH 7.5; 0.0015% Brij-35) and kinase reaction termination solution (100 mM HEPES, PH 7.5; 0.0015% Brij-35; 0.2% Coating Reagent; 50 mM EDTA);
Preparation of experimental samples: 100 μl of 5 μM sample solution (dissolved in 100% DMSO) was added to a 96-well plate to obtain a 50×sample solution. As controls, two wells containing only 100 μL of 100% DMSO were set on the same plate. One was served as a control without samples and the other was served as a control without enzymes. 10 μL of sample and 90 μL, of 1×kinase reaction buffer were added to a 96-well plate as a transfer plate. The transfer plate was shaken for 10 minutes.
Preparation of the test plate: taking 5 μL of each of the prepared samples from the 96-well transfer plate into a 384-well plate.
Kinase reaction: to 5 μL of 5×compound solution (dissolved in DMSO, diluted 10 times with water) was added 10 μL of 2.5×ALK kinase solution (kinase was diluted with 1×kinase reaction buffer), which was incubated at room temperature for 10 min, and then 10 μL of 2.5×substrate peptide solution (FAM-labeled peptide and ATP were diluted with 1×kinase reaction buffer) was added.
Termination of the kinase reaction: 25 μL of kinase reaction termination solution was added after being reacted at 28° C. for a period of time.
The fluorescence (F) was tested on a Caliper and data was collected.
The inhibition rate of kinase activity was calculated: the percent inhibition rate of kinase activity=(FDMSO control−Fsample)/(FDMSO control−Fnegative control)×100, with DMSO as the solution control, and no kinase as the negative control.
Target sequence in this assay (Q9UM73 19-1620): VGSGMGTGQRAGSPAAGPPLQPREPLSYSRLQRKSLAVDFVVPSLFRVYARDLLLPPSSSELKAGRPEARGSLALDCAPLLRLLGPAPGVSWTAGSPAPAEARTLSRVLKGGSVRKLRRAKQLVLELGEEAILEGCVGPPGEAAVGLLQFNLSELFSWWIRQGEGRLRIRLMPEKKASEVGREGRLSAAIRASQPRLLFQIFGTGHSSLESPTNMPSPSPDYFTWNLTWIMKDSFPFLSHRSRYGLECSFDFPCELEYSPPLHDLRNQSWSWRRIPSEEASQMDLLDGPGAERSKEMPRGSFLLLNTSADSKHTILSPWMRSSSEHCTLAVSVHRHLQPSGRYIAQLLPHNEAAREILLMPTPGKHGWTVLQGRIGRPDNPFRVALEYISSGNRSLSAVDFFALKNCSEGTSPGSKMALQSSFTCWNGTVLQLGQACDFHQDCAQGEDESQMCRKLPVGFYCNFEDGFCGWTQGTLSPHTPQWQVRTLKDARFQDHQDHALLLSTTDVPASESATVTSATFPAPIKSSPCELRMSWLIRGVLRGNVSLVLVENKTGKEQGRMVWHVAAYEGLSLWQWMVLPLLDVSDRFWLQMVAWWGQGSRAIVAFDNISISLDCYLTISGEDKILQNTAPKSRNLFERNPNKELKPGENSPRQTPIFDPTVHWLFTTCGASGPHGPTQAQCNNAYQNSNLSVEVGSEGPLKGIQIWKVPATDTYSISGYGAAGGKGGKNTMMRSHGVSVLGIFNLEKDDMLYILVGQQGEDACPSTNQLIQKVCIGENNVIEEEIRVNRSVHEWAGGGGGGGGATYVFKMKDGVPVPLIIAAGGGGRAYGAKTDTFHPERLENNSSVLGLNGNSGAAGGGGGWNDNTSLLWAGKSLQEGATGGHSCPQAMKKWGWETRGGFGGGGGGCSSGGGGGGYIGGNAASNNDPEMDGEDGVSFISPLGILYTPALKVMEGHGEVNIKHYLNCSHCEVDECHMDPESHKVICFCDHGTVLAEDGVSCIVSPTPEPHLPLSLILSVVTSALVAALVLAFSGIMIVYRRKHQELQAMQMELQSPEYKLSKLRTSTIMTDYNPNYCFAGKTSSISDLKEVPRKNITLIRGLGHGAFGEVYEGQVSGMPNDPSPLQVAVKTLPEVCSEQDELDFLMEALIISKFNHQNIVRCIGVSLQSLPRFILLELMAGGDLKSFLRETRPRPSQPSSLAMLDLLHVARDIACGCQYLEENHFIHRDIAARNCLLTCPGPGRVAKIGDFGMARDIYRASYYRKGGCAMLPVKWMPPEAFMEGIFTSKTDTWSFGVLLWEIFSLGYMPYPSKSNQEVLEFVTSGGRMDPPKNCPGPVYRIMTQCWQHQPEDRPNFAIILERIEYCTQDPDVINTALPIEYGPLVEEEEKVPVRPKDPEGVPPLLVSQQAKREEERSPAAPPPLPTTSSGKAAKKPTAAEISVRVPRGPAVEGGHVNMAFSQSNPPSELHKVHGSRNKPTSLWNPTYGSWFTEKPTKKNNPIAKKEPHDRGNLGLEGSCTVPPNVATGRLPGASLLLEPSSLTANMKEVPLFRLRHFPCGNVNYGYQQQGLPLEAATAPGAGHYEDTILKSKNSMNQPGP

Another experiment concerns SU-DHL-1 cells. The experiment is described as follows: Inhibition of proliferation of SU-DHL-1 cells by CTG assay. It is filed as cell-based. To be noted: Homo sapiens, compound 100 μM, 72 hours. The procedure:
Example 7 Testing the Inhibitory Effect of Formula Compound on the Proliferation of SU-DHL-1 Cells by CTG Assay
The inhibitory effect of the compound on the proliferation of SU-DHL-1 cells ([…]) was determined by the […] method in vitro. The Cells were cultured and the compound was prepared referring to the method of […], and the culture time after administration was 72 hours. Subsequently, an appropriate amount of CTG reagent was added, the luminescence value was measured, and the inhibition rate was calculated.

Experiment [2] concerns the target T1, ALK kinase. Briefly: ALK protein degradation activity by Western blot in H2228 cells. It is filed as cell-based. On the set-up: H2228 cell lines (human non-small cell line lung cancer cells, available from ATCC); host or cells: H2228 (human non-small cell lung cancer cells); the other entry of the earlier key: EML4 (Q9HC35, Echinoderm microtubule-associated protein-like 4). The settings on record: NCI-H2228, compound 1 μM, treatment for 24 hours, degradation rate by Western blot. Background: Immunoblotting shows a protein as a band on a membrane.
Target sequence in this assay (Q9UM73 with tags, fused parts or gaps): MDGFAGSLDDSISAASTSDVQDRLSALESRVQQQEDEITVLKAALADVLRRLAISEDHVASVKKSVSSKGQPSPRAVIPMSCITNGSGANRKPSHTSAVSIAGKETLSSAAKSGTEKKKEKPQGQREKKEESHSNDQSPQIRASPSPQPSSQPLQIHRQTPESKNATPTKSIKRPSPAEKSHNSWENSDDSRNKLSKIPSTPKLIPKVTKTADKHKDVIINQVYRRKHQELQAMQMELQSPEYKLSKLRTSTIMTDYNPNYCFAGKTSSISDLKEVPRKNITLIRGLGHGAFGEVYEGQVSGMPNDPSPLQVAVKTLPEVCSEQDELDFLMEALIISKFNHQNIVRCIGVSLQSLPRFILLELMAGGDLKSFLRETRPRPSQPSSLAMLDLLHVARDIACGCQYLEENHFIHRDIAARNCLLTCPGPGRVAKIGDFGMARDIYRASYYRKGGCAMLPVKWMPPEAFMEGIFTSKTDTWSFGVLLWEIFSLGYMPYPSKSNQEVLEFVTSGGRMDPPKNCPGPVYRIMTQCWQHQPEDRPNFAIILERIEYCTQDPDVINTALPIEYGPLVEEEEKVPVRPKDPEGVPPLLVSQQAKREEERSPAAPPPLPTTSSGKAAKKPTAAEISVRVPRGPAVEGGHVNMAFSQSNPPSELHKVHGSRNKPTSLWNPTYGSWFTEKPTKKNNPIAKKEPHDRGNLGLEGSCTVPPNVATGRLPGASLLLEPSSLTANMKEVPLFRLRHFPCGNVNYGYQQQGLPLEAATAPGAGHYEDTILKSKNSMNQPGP

By inhibition is commonly meant the change of the read-out against control, counted positive when it falls. `Cc1cc(Nc2ncc(Cl)c(Nc3ccccc3S(=O)(=O)C(C)C)n2)c(OC(C)C)cc1C1CCN(CCOCCOCCOCCNc2cccc3c2C(=O)N(C2CCC(=O)NC2=O)C3=O)CC1` (stereo not drawn) [Compound 14] displayed an inhibition at 0.1 µM on ALK kinase [1] of 89%. This molecule also registered an inhibition at 100 µM in the experiment with SU-DHL-1 cells of 99%. At ALK kinase [2], this molecule displayed an inhibition at 1 µM of over 90%.
Turning to `Cc1cc(Nc2ncc(Cl)c(Nc3ccccc3S(=O)(=O)C(C)C)n2)c(OC(C)C)cc1C1CCN(CCCCCC(=O)Nc2cccc3c2C(=O)N(C2CCC(=O)NC2=O)C3=O)CC1` (stereo not drawn) [Compound 3], at ALK kinase [1], testing at 0.1 µM gave an inhibition of 98%. The molecule further yielded an inhibition at 100 µM in the experiment on SU-DHL-1 cells of 72%. On ALK kinase [2], this molecule showed an inhibition at 1 µM of over 90%.
